# Test results taken from PubChem BioAssay (NCI).
#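 1) Cells in 96-well plates. 2) Compound, 48 h, 5 concentrations. 3) Linear interpolation between surrounding doses. 4) Unreached endpoint = highest concentration. The concentration for 50% growth inhibition is given as GI50. The concentration for full growth arrest is given as TGI.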
# Assays:
# Experiment in all cases: NCI anticancer screen, dose series, 48 h
# 786-0 renal = system: 786-0 renal
# A498 renal = system: A498 renal
# A549 NSCLC = system: A549 NSCLC
# ACHN renal = system: ACHN renal
# BT-549 breast = system: BT-549 breast
# CAKI-1 renal = system: CAKI-1 renal
# CCRF-CEM leukemia = system: CCRF-CEM leukemia
# COLO 205 colon = system: COLO 205 colon
# DU-145 prostate = system: DU-145 prostate
# EKVX NSCLC = system: EKVX NSCLC
# HCC-2998 colon = system: HCC-2998 colon
# HCT-116 colon = system: HCT-116 colon
# HCT-15 colon = system: HCT-15 colon
# HL-60(TB) leukemia = system: HL-60(TB) leukemia
# HOP-62 NSCLC = system: HOP-62 NSCLC
# HOP-92 NSCLC = system: HOP-92 NSCLC
# HS 578T breast = system: HS 578T breast
# HT29 colon = system: HT29 colon
# IGROV1 ovarian = system: IGROV1 ovarian
# K-562 leukemia = system: K-562 leukemia
# KM12 colon = system: KM12 colon
# LOX IMVI melanoma = system: LOX IMVI melanoma
# M14 melanoma = system: M14 melanoma
# MALME-3M melanoma = system: MALME-3M melanoma
# MCF7 breast = system: MCF7 breast
# MDA-MB-231 breast = system: MDA-MB-231 breast
# MDA-MB-435 = system: MDA-MB-435
# MOLT-4 leukemia = system: MOLT-4 leukemia
# NCI-H226 lung = system: NCI-H226 lung
smiles,measurement,setting,value
CC[C@@H](CO)Nc1ccc2ncc(C#Cc3cncc(C(=O)Nc4ccc(CN5CCN(C)CC5)c(C(F)(F)F)c4)c3)n2n1,GI50,786-0 renal,282 nM
same,TGI,786-0 renal,986 nM
same,GI50,A498 renal,1060 nM
same,TGI,A498 renal,1920 nM
same,GI50,A549 NSCLC,199 nM
same,TGI,A549 NSCLC,768 nM
same,GI50,ACHN renal,363 nM
same,TGI,ACHN renal,1180 nM
same,GI50,BT-549 breast,614 nM
same,TGI,BT-549 breast,1350 nM
same,GI50,CAKI-1 renal,142 nM
same,TGI,CAKI-1 renal,458 nM
same,GI50,CCRF-CEM leukemia,26.4 nM
same,TGI,CCRF-CEM leukemia,1310 nM
same,GI50,COLO 205 colon,89.2 nM
same,TGI,COLO 205 colon,196 nM
same,GI50,DU-145 prostate,144 nM
same,TGI,DU-145 prostate,543 nM
same,GI50,EKVX NSCLC,142 nM
same,TGI,EKVX NSCLC,1050 nM
same,GI50,HCC-2998 colon,238 nM
same,TGI,HCC-2998 colon,858 nM
same,GI50,HCT-116 colon,66.1 nM
same,TGI,HCT-116 colon,355 nM
same,GI50,HCT-15 colon,583 nM
same,TGI,HCT-15 colon,1700 nM
same,GI50,HL-60(TB) leukemia,104 nM
same,TGI,HL-60(TB) leukemia,462 nM
same,GI50,HOP-62 NSCLC,178 nM
same,TGI,HOP-62 NSCLC,909 nM
same,GI50,HOP-92 NSCLC,67 nM
same,TGI,HOP-92 NSCLC,261 nM
same,GI50,HS 578T breast,59.8 nM
same,TGI,HS 578T breast,451 nM
same,GI50,HT29 colon,157 nM
same,TGI,HT29 colon,655 nM
same,GI50,IGROV1 ovarian,77 nM
same,TGI,IGROV1 ovarian,365 nM
same,GI50,K-562 leukemia,5 nM
same,TGI,K-562 leukemia,1640 nM
same,GI50,KM12 colon,9.27 nM
same,TGI,KM12 colon,793 nM
same,GI50,LOX IMVI melanoma,63.4 nM
same,TGI,LOX IMVI melanoma,258 nM
same,GI50,M14 melanoma,118 nM
same,TGI,M14 melanoma,360 nM
same,GI50,MALME-3M melanoma,125 nM
same,TGI,MALME-3M melanoma,544 nM
same,GI50,MCF7 breast,46.9 nM
same,TGI,MCF7 breast,409 nM
same,GI50,MDA-MB-231 breast,48.2 nM
same,TGI,MDA-MB-231 breast,500 nM
same,GI50,MDA-MB-435,104 nM
same,TGI,MDA-MB-435,634 nM
same,GI50,MOLT-4 leukemia,43.8 nM
same,TGI,MOLT-4 leukemia,693 nM
same,GI50,NCI-H226 lung,79.6 nM
